Consider 8 molecules from patent US20220187281A1, “METHODS AND SYSTEMS FOR EVALUATION OF CELL SAMPLES” (priority 2019, published 2022).

For assay [1], the system named is CN0458 colon tumor slices. Briefly: Cell-Titer Blue viability of CN0458 colon PDX tumor slices. It is filed as cell-based, human. The conditions noted are these: 100 uM.
In assay [2] the test system is colorectal cancer PDX model (mCRC). Briefly: Cell-Titer Blue viability of colorectal cancer PDX model (FIG. 2E). Type of assay: cell-based, human. The note with it: oxaliplatin 0.1, 1, 10 μM; 5-FU 1, 10, 100 μM; days 0, 4, 8 in vitro.
The test system of assay [3] is BR0851 TNBC PDX tumor. The experiment in a line: Cell-Titer Blue viability of BR0851 TNBC PDX tumor slices. The conditions noted are these: for sensitivity by viability assay readings: 12 days ex vivo compared to 0 div; for response profile of tumor slices: by 13 div, long-term exposure. It is filed as cell-based, human.
In assay [4] the test system is BR0851 TNBC PDX. The conditions noted are these: JAX PDX Resource data; cited from earlier work.
The test system of assay [5] is patient tumor tissue samples from two locations. Briefly: Viability of samples from two locations of the same patient tumor (Example 6). It is filed as cell-based. The conditions noted are these: 0, 3, 5, 9, and 12 days in vitro.
Method: Tumor tissue samples from two locations of the same patient tumor are obtained and cultured as described in Example 1. Each sample is treated with Cisplatin (Cis), Doxorubicin (Dox) or Paclitaxel (Taxol). Viability measurements are obtained at 0, 3, 5, 9, and 12 days in vitro.
In assay [6] the test system is BR0851 TNBC PDX slices. The experiment in a line: Immunohistochemical analysis of BR0851 TNBC PDX slices. It is filed as cell-based, human. The note with it: BR0851 slices at 13 div; for overall cell numbers (immunohistochemical analysis): compared with vehicle.
Assay [7] has as its system BR1126 TNBC PDX tumor. The experiment in a line: Cell-Titer Blue viability of BR1126 TNBC PDX tumor slices. It is filed as cell-based, human.
Assay [8] has as its system BR1126 TNBC PDX. The note with it: JAX PDX Resource data; cited from earlier work.
In assay [9] the test system is human metastatic colorectal cancer (mCRC) biopsy core. Briefly: CTB viability of human mCRC biopsy core slices in long-term culture (therapy resistance). Type of assay: cell-based. The conditions noted are these: encorafenib 100 nM, binimetinib 100 nM; 16 days in culture (days 16 and 20). The method, then:
(§1) 5 μl of Cell-Titer Blue (CTB) (Promega) substrate was added to 1 ml of culture medium and incubated at 37° C. for 15 or 24 hr. 100 μl of media was removed from each sample culture and fluorescence was measured (Ex560/Em590) using Enspire® multimode plate reader (Perkin Elmer®). Background fluorescence of the culture medium was subtracted from each sample reading at each day Immediately following the CTB reading, media was changed and drugs were added to fresh media to continue culture. At desired time points, additional viability measurements were made to collect longitudinal data and conditioned media is collected and analyzed. After the final time point, tissues were fixed in formalin and embedded in paraffin or OCT for histological analyses or lysed in RIPA buffer or Trizol and conditioned media is frozen. To account for variability in tissue composition of each slice punch, viability readings of each sample was normalized to the respective CTB reading immediately after slicing (0 days ex vivo: 1 dex CTB reading) and relative fold changes in CTB readings at each time point were analyzed.
(§2) Samples were precision cut into […] thick slices using a Vibratome VT1200S (Leica Microsystems). […]

Assay [10] has as its system CNSTG colon tumor slices. The experiment in a line: Cell-Titer Blue viability of CNSTG colon PDX tumor slices. Type of assay: cell-based, human. The note with it: 100 uM.
Assay [11] relates to human metastatic colorectal cancer (mCRC) biopsy cores. Briefly: CTB viability of mCRC biopsy core slices from two patients (immunotherapy response). It is filed as cell-based. The conditions noted are these: nivolumab 10 μg/mL, encorafenib 100 nM, cetuximab 10 μg/mL; early and late time points. On the procedure: as §1, §2
Where [12] appears, read: compared with vehicle or Cisplatin treated tissues.

Turning to `O=c1[nH]cc(F)c(=O)[nH]1` [5-FU, 5-fluorouracil], the “suppression of viability of CN0458 slices compared with CNSTG slices” value in assay [1] is listed as “more effective”. The cell viability response entry in assay [2] is listed as “no reduction in cell viability”.

`N.N.[Cl][Pt][Cl]` [Cisplatin]: in [3], the “sensitivity by viability assay readings” value is “insensitive” and the “response profile of tumor slices” value is “progressive disease profile”. Further, the “in vivo treatment response” value in assay [4] was “no response”. In assay [5], the “difference between viability measurements of the two tumor locations” value is “significant difference”. In addition, in [6], the “overall cell numbers (immunohistochemical analysis)” value was “similar”. Further, in assay [7], the “ex vivo treatment response” value is “partial response” and the “sensitivity by viability assay readings” value is “sensitive”. In [8], the “in vivo treatment response” value was “partial response”.

Regarding `COc1cccc2c1C(=O)c1c(O)c3c(c(O)c1C2=O)C[C@@](O)(C(=O)CO)C[C@@H]3O[C@H]1C[C@H](N)[C@H](O)[C@H](C)O1` [Doxorubicin], in assay [3], the “sensitivity by viability assay readings” value is “sensitive” and the “response profile of tumor slices” value is “complete response”. In assay [5], the “difference between viability measurements of the two tumor locations” value is given as “significant difference”. Also, the “overall cell numbers (immunohistochemical analysis)” value in assay [6] was “overall reduction in cell numbers”. Also, in assay [6] (setting [12]), the necrotic regions result is on record as “increase”; the “pyknotic and abnormal nuclei” value is on record as “increase”.

Consider `CC(=O)O[C@H]1C(=O)[C@@]2(C)[C@H]([C@H](OC(=O)c3ccccc3)[C@]3(O)C[C@H](OC(=O)[C@H](O)[C@@H](NC(=O)c4ccccc4)c4ccccc4)C(C)=C1C3(C)C)[C@]1(OC(C)=O)CO[C@@H]1C[C@@H]2O` [Paclitaxel], for which the “difference between viability measurements of the two tumor locations” value in assay [5] is “significant difference”. In assay [7], the “sensitivity by viability assay readings” value was “sensitive”.

Regarding `Cn1cnc2c(F)c(Nc3ccc(Br)cc3F)c(C(=O)NOCCO)cc21` [binimetinib], in assay [9], the “therapy resistance in long-term culture (viability)” value is “suppressed”.

As for `COC(=O)N[C@@H](C)CNc1nccc(-c2cn(C(C)C)nc2-c2cc(Cl)cc(NS(C)(=O)=O)c2F)n1` [encorafenib], in assay [9], the “therapy resistance in long-term culture (viability)” value is “emergence of encorafenib resistance”.

Regarding `O=C1[O][Pt]2([NH][C@@H]3CCCC[C@H]3[NH]2)[O]C1=O` [oxaliplatin], the “suppression of viability of CNSTG slices compared with CN0458 slices” value in assay [10] was “more effective”. Further, the cell viability response result in assay [2] was “dose and time-dependent response”.

For the molecule nivolumab, the “sensitivity of the two mCRC patient samples (viability)” value in assay [11] is listed as “differential sensitivity”.
